# Source: US11045519B2, “Arginine-rich polypeptide compositions and methods of using same” (UNM Rainforest Innovations, priority 2017, dated 2021)
# Assays:
# Assay type in all cases: cell-based
# HPV16 PsVs [1] = test: Post-attachment and time-course HPV16 PsV infection of HaCaT cells
# Procedure: FIG. 6. PolyR inhibits HPV16 PsV infection at pre-attachment and post-attachment stages. (A) Infection of HaCaT cells with HPV16. Semi-confluent HaCaT cells were left untreated with polyR (H16) or exposed to HPV16 PsV 1 h before (polyR/H16) or one hour after […] (H16/PolyR) treatment, were subjected to infectivity measurements after a 24-hour incubation at 37° C. (as described in FIG. 1). (B) Time-course experiments of HPV infection in the absence or presence of polyR. Untreated control cells were infected with HPV16 PsV (HPV16). HaCaT cells were treated with 1 μM polyR before (+1 h polyR/HPV16), concurrently (0 h polyR/HPV16) or at one hour, two hours, four hours, six hours, or eight hours post-attachment of HPV16 PsVs. Infection was scored at 24 hours post HPV attachment and shift to 37° C.
# FIG. 18. PrS post-attachment effect on HPV infection. HaCaT cell were incubated with 500 vge/cell HPV PsVs at RT for one hour before addition of 1.5 μM PrS complexed with 0.1% HMW HA or with 3 μM LMW HA. Infection scored 24 after infection as described in FIG. 12.
# FIG. 20. Time-course experiments of HPV infection in the presence of PrS or HA:PrS complex. (A) PrS; (B) HA:PrS complex. HaCaT cells were treated with 2 μM PrS or 2 μM PrS associated with 0.1% HMW HA at indicated times post-attachment of HPV16 PsVs, and infection was scored 24 hours after infection as described in FIG. 12. Time-point zero represents initial PsV inoculation.
# The data above show clearly that polyR can inhibit HPV binding to cells and infection, but that polyR cannot displace HPV after bound to cells. To determine whether polyR can alter HPV infectivity if it is present after HPV is bound to cells, the infection levels of virus-exposed cells that are either pre-treated with polyR before virus binding, polyR-treated after HPV binding, or untreated with polyR were compared. […] This indicates a second mechanism whereby polyR can block HPV infection after virus is bound to cells.
# Next, the effectiveness of polyR treatment in blocking infection when added at increasing times post HPV binding to cells was tested. This time-course experiment confirmed that polyR affects post-attachment stages of virus infection. HaCaT cells were treated with polyR one hour prior to virus exposure, concurrently with virus exposure, and at increasing times after virus was bound and unbound virus was removed. Infection efficiency was measured after a 24-hour incubation at 37° C. The cells infected with HPV16 PsV in the absence of polyR (FIG. 6B, HPV16) was considered as 100% infection efficiency.
# To investigate PrS post-attachment effect on infection, HaCaT cell were exposed with HPV PsVs at room temperature for one hour before addition of PrS complexed with heavy molecular weight (HMW) HA or with low molecular weight (LMW) HA.
# Time-course experiments in which HaCaT cells were exposed to PrS or PrS:HA complex at various times after attachment with HPV16 PsVs confirmation this mechanism.
# HPV16 PsVs [2] = test: Internalization of cell-bound HPV16 PsV into HaCaT cells (L1 immunoblot); conditions: HPV-bound HaCaT cells incubated 4 h
# Procedure: FIG. 8. PolyR reduces the internalization of cell membrane-bound HPV16 PsV. HaCaT cells were incubated with HPV16 PsVs for one hour at 4° C. Unbound virus was removed from the cells by incubation with 0.25% trypsin/5 mM EDTA for 15 minutes at 37° C. Cells were pelleted and washed several times with CM (to neutralize pH) and with ice-cold PBS before adding ice-cold 0.1 M sodium acetate buffer (pH 4.5) containing 0.5 M NaCl. After a two-minute incubation on ice, cells were washed three times with PBS and lysed with RIPA [50 mM Tris (pH 7.5), 0.1% SDS, 1% sodium deoxycholate, 150 mM NaCl, 1 mM EDTA, 1% Triton X-100, 1 mM sodium vanadate, 1 mM PMSF, 10 ng/ml leupeptin, 10 ng/ml aprotinin] buffer. Immuno-blotting was performed, and the L1 protein was detected using a HPV16 L1-specific mAb (Camvir-1, sc-47699, Santa Cruz Biotechnology, Inc., Dallas, Tex.).
# To investigate the effect of polyR on the penetration of cell-bound virus into host cells, HPV-bound cells were incubated for four hours in the absence or presence of polyR. […] Immuno-blotting was performed, and the L1 protein was detected using a HPV16 L1 specific mAb (Camvir-1; Santa Cruz Biotechnology, Inc., Dallas, Tex.). As HPV16 L1 is proteolytically processed during cell entry, two forms of L1 (full-length 55 kDa and the 25 kDa processed form) were detected. […]
# HPV16 PsVs [3] = test: Dissociation of cell-bound HPV16 PsVs from HaCaT cells (L1 immunoblot); conditions: 3 μM added to HPV-bound HaCaT cells, 1 h 4° C.
# Procedure: (A) HPV16 PsVs were bound to HaCaT cells (one hour at 4° C.), before the addition of […]. After a one-hour incubation at 4° C., unbound virus was washed out, cells were lysed and analyzed for the content of HPV L1 protein. (B) HaCaT cells were exposed to HPV 16 PsV at 4° C. in the absence of polyR, simultaneously with polyR (0 h), or one hour after polyR treatment (+1 h). After extensive washing with PBS, cells were lysed and analyzed for the content of HPV16 L1 protein.
# FIG. 19. […] HPV16 PsVs were bound to HaCaT cells (one hour in cold), before the addition of 5 μM PrS. After a one-hour incubation at 4° C., unbound virus was washed out, cells were lysed, and HPV L1 protein content was measured as described in FIG. 16.
# To determine whether polyR could cause HPV16 dissociation from cells, HPV16 PsVs were bound to HaCaT cells for one hour at 4° C. After washing away unbound virus, HPV-bound cells were incubated with 3 μM polyR for one hour at 4° C.; control cells were untreated. Cells were lysed and analyzed for HPV L1 protein content. […]
# The post-attachment inhibitory effects of PrS could be due the displacement of capsids from the cell surface. […] After a one-hour incubation at 4° C., unbound virus was washed out, cells were lysed, and the HPV L1 protein content was analyzed.
substance,measurement,setting,value
poly-L-arginine [polyR],inhibition of HPV16 infection,"HPV16 PsVs [1]; 1 μM, added 1 h before virus exposure",> 95%
same,inhibition of HPV16 infection,"HPV16 PsVs [1]; 1 μM, added 1 h to 2 h post HPV binding",Strong infection inhibition
same,reduction in HPV infection,"HPV16 PsVs [1]; 1 μM, added 4 h post infection",approximately 75%
same,inhibition of HPV16 infection,"HPV16 PsVs [1]; 1 μM, added 6 h to 8 h post infection",Only mild inhibition
same,inhibition of HPV16 infection,"HPV16 PsVs [1]; 1 μM, added simultaneously with HPV (0 h)",same magnitude of infection inhibition
same,inhibition of infection when added after virus binding versus before,"HPV16 PsVs [1]; 2 μM, 1 h after versus 1 h before HPV16 PsV, 24 h",as effective at inhibiting HPV infection when added after virus was bound to cells as it was when added prior to virus exposure
same,"internalized L1 forms (55 kDa full-length, 25 kDa processed)",HPV16 PsVs [2],decreased levels of 55 kDa L1 protein and increased amounts of the 25 kDa proteolytic processed L1 form
same,virus internalization rate (sum of IDVs of 55 kDa and 25 kDa L1 bands),HPV16 PsVs [2],had no effect on the virus internalization rate
same,release of HPV16 from cell membrane,HPV16 PsVs [3],did not induce the release of HPV16 from the cell membrane
